This note sets out measurements from patent US12637472B2, “Benzimidazole heteroatom-containing spiro compound and medicinal use thereof” (Changzhi University, priority 2023, dated 2026).

Holding throughout (assay type): cell-based
In test [1] the test system is human colon cancer cells HCT116. Description: MTT in vitro cell proliferation inhibition experiment, HCT116. As to conditions: Homo sapiens, HCT-116, MTT method, 48 h contact between compound and cell, read-out: Antiproliferative activity (IC50, μM) HCT116. As for the experimental part:
(§1) Human liver tumor cells HepG2, human colon cancer cells HCT116, and human gastric adenocarcinoma cells AGS were purchased from the Institute of Basic Medical Sciences, Chinese Academy of Medical Sciences. The cells each were preserved and passaged in the laboratory of the present disclosure according to respective cultivation data. Each cell line was routinely inoculated in a 50 mL cell culture flask, and cultivated with a 10% fetal bovine serum-containing DMEM/IRP-1640 medium at 37° C., 5% CO2, and 100% humidity, where the medium was changed daily. When growing to a confluency of 80% to 90%, cells were digested with a mixture of trypsin and EDTA and passaged according to 1:3.
(§2) An in vitro cell activity and proliferation inhibition experiment was conducted by an MTT method to investigate an impact of a target compound on a survival activity of each cell. Cells at a logarithmic growth phase were inoculated at 5×10^3 cells (100 μL)/well in a 96-well culture plate and cultivated for 24 h, and then compound solutions with different concentrations prepared in advance were added (100 μL) to the plate. At least 3 replicate wells were set for each concentration. A solvent control group without a compound and a blank control group without a cell were set. Edge wells each were filled with 200 μL of sterilized water. […] A liquid in each well was completely removed carefully, 150 μL of DMSO was added to each well, the plate was gently shaken on a microshaker for 10 min to make a purple crystal fully dissolved, and then an absorbance value was determined at 570 nm by a microplate reader. With a cell viability of the solvent control group without a compound as 100%, a cell survival rate was calculated as follows: a cell survival rate=(an absorbance value of a compound group−an absorbance value of the blank control group)/(an absorbance value of the control group−an absorbance value of the blank control group)×100%. A half-maximal inhibitory concentration (IC50) of a compound for a cell was calculated by the Graphpad Prism 5 software.
In general terms: Formazan colour is commonly taken as a measure of viable cells.

Test [2] deals with Human liver tumor cells HepG2. Description: MTT in vitro cell proliferation inhibition experiment, HepG2. The conditions noted are these: Homo sapiens, MTT method, 48 h contact between compound and cell, read-out: Antiproliferative activity (IC50, μM) HepG2. The procedure: as §1, §2
The subject of test [3] is human gastric adenocarcinoma cells AGS. Description: MTT in vitro cell proliferation inhibition experiment, AGS. The conditions noted are these: Homo sapiens, MTT method, 48 h contact between compound and cell, read-out: Antiproliferative activity (IC50, μM) AGS. The procedure:
as §1, §2

`CCOc1ccc(C2C(C(C)CC)NC3(C(=O)c4ccccc4C3=O)C2C(=O)c2nc3ccccc3[nH]2)cc1` (stereo not drawn) [Compound 23, 3-(1H-benzimidazol-2-carbonyl)-5-sec-butyl-4-(4-ethoxyphenyl)spiro[inden-2,2′-pyrrolidine]-1,3-dione]: the results for the IC50 in test [1], in test [2] and in test [3] were 9.67 µM, 8.78 µM and 45.8 µM, respectively.

With `CCC(C)C1NC2(C(=O)c3ccccc3C2=O)C(C(=O)c2nc3ccccc3[nH]2)C1c1ccc(Br)cc1` (stereo not drawn) [Compound 24, 3-(1H-benzimidazol-2-carbonyl)-4-(4-bromophenyl)-5-sec-butylspiro[inden-2,2′-pyrrolidine]-1,3-dione], the results for the 50% inhibitory concentration (IC50) in test [1], in test [2] and in test [3] were 45.8 µM, 67.8 µM and 3.67 µM, respectively.

As for `CC(C)C1NC2(C(=O)c3ccccc3C2=O)C(C(=O)c2nc3ccccc3[nH]2)C1C1CCCCC1` (stereo not drawn) [Compound 25, 3-(1H-benzimidazol-2-carbonyl)-4-cyclohexyl-5-isopropylspiro[inden-2,2′-pyrrolidine]-1,3-dione], the IC50 (as a rule, the concentration that gives 50% inhibition) in test [1] amounted to 5.67 µM; in test [2], 9.67 µM; in test [3], 12.4 µM.

Regarding `CC(C)C1NC2(C(=O)c3ccccc3C2=O)C(C(=O)c2nc3ccccc3[nH]2)C1c1ccc(Cl)c(F)c1` (stereo not drawn) [Compound 26, 3-(1H-benzimidazol-2-carbonyl)-4-(3-fluoro-4-chlorophenyl)-5-isopropylspiro[inden-2,2′-pyrrolidine]-1,3-dione], the half-maximal inhibitory concentration (IC50) was 79 µM in test [1], > 100 µM in test [2] and 60 µM in test [3].

Regarding `CC(C)C1NC2(C(=O)c3ccccc3C2=O)C(C(=O)c2nc3ccccc3[nH]2)C1c1ccc(Cl)cc1` (stereo not drawn) [Compound 27, 3-(1H-benzimidazol-2-carbonyl)-4-(4-chlorophenyl)-5-isopropylspiro[inden-2,2′-pyrrolidine]-1,3-dione], the half-maximal inhibitory concentration (IC50) was > 100 µM in test [1], > 100 µM in test [2] and 90.1 µM in test [3].

Turning to `Cc1ccc(C2C(C(C)C)NC3(C(=O)c4ccccc4C3=O)C2C(=O)c2nc3ccccc3[nH]2)cc1` (stereo not drawn) [Compound 28, 3-(1H-benzimidazol-2-carbonyl)-5-isopropyl-4-p-tolylspiro[inden-2,2′-pyrrolidine]-1,3-dione], the values for the 50% inhibitory concentration (IC50) in test [1], in test [2] and in test [3] were 4.56 µM, 3.45 µM and 2.98 µM, respectively.

For the compound `CCOc1ccc(C2C(C(C)C)NC3(C(=O)c4ccccc4C3=O)C2C(=O)c2nc3ccccc3[nH]2)cc1OCC` (stereo not drawn) [Compound 29, 3-(1H-benzimidazol-2-carbonyl)-3,4-diethoxyphenyl-5-isopropylspiro[inden-2,2′-pyrrolidine]-1,3-dione], the IC50 in test [1] worked out at 53.2 µM; in test [2], 44.6 µM; in test [3] it was 67.1 µM.

With `CC(C)C1NC2(C(=O)c3ccccc3C2=O)C(C(=O)c2nc3ccccc3[nH]2)C1c1cccc(Br)c1` (stereo not drawn) [Compound 30, 3-(1H-benzimidazol-2-carbonyl)-4-(3-bromophenyl)-5-isopropylspiro[inden-2,2′-pyrrolidine]-1,3-dione], the values for the IC50 in test [1], in test [2] and in test [3] were 3.42 µM, 2.34 µM and 2.98 µM, respectively.

For the compound `CCOc1ccc(C2C(C(C)C)NC3(C(=O)c4ccccc4C3=O)C2C(=O)c2nc3ccccc3[nH]2)cc1` (stereo not drawn) [Compound 31, 3-(1H-benzimidazol-2-carbonyl)-4-(4-ethoxyphenyl)-5-isopropylspiro[inden-2,2′-pyrrolidine]-1,3-dione], the IC50 in test [1] was 56.4 µM; in test [2], 44.6 µM; in test [3] it was 59.9 µM.

With `CC(C)C1NC2(C(=O)c3ccccc3C2=O)C(C(=O)c2nc3ccccc3[nH]2)C1c1ccc(Br)cc1` (stereo not drawn) [Compound 32, 3-(1H-benzimidazol-2-carbonyl)-4-(4-bromophenyl)-5-isopropylspiro[inden-2,2′-pyrrolidine]-1,3-dione], the half-maximal inhibitory concentration (IC50) was > 100 µM in test [1], 66.7 µM in test [2] and > 100 µM in test [3].

Regarding `CSCCC1NC2(C(=O)c3ccccc3C2=O)C(C(=O)c2nc3ccccc3[nH]2)C1C1CCCCC1` (stereo not drawn) [Compound 33, 3-(1H-benzimidazol-2-carbonyl)-4-cyclohexyl-5-(methylthio)ethylspiro[inden-2,2′-pyrrolidine]-1,3-dione], the half-maximal inhibitory concentration (IC50) amounted to 15.5 µM in test [1], 12.5 µM in test [2] and 9.77 µM in test [3].

As for `CSCCC1NC2(C(=O)c3ccccc3C2=O)C(C(=O)c2nc3ccccc3[nH]2)C1c1ccc(Cl)c(F)c1` (stereo not drawn) [Compound 34, 3-(1H-benzimidazol-2-carbonyl)-4-(4-chloro-3-fluorophenyl)-5-(2-methylthio)ethylspiro[inden-2,2′-pyrrolidine]-1,3-dione], the IC50 in test [1] worked out at 44.7 µM; in test [2] it was 36.6 µM; in test [3] it was 39.7 µM.

With `CSCCC1NC2(C(=O)c3ccccc3C2=O)C(C(=O)c2nc3ccccc3[nH]2)C1c1ccc(Cl)cc1` (stereo not drawn) [Compound 35, 3-(1H-benzimidazol-2-carbonyl)-4-(4-chlorophenyl)-5-(2-methylthio)ethylspiro[inden-2,2′-pyrrolidine]-1,3-dione], the IC50 is 42.7 µM in test [1], 40.5 µM in test [2] and 45.8 µM in test [3].

For `CSCCC1NC2(C(=O)c3ccccc3C2=O)C(C(=O)c2nc3ccccc3[nH]2)C1c1ccc(C)cc1` (stereo not drawn) [Compound 36, 3-(1H-benzimidazol-2-carbonyl)-5-(2-methylthio)ethyl-4-p-tolylspiro[inden-2,2′-pyrrolidine]-1,3-dione], the IC50 worked out at 15.5 µM in test [1], 13.5 µM in test [2] and 9.78 µM in test [3].

As to `CCOc1ccc(C2C(CCSC)NC3(C(=O)c4ccccc4C3=O)C2C(=O)c2nc3ccccc3[nH]2)cc1OCC` (stereo not drawn) [Compound 37, 3-(1H-benzimidazol-2-carbonyl)-3,4-diethoxyphenyl-5-(2-methylthio)ethylspiro[inden-2,2′-pyrrolidine]-1,3-dione], the concentration for half-maximal inhibition (IC50) in test [1] is > 100 µM; in test [2] it was > 100 µM; in test [3], 78.6 µM.

For the compound `CSCCC1NC2(C(=O)c3ccccc3C2=O)C(C(=O)c2nc3ccccc3[nH]2)C1c1cccc(Br)c1` (stereo not drawn) [Compound 38, 3-(1H-benzimidazol-2-carbonyl)-4-(3-bromophenyl)-5-(2-methylthio)ethylspiro[inden-2,2′-pyrrolidine]-1,3-dione], the IC50 in test [1] was 47.4 µM; in test [2], 49.8 µM; in test [3], 40.9 µM.

For the compound `CCOc1ccc(C2C(CCSC)NC3(C(=O)c4ccccc4C3=O)C2C(=O)c2nc3ccccc3[nH]2)cc1` (stereo not drawn) [Compound 39, 3-(1H-benzimidazol-2-carbonyl)-4-(4-ethoxyphenyl)-5-(2-methylthio)ethylspiro[inden-2,2′-pyrrolidine]-1,3-dione], the IC50 in test [1], in test [2] and in test [3] was > 100 µM in each case.

With `CSCCC1NC2(C(=O)c3ccccc3C2=O)C(C(=O)c2nc3ccccc3[nH]2)C1c1ccc(Br)cc1` (stereo not drawn) [Compound 40, 3-(1H-benzimidazol-2-carbonyl)-4-(4-bromophenyl)-5-(2-methylthio)ethylspiro[inden-2,2′-pyrrolidine]-1,3-dione], the results for the 50% inhibitory concentration (IC50) in test [1], in test [2] and in test [3] were 56.7 µM, 9.56 µM and 66.2 µM, respectively.

As for `O=C(c1nc2ccccc2[nH]1)C1C(C2CCCCC2)C(c2c[nH]c3ccccc23)NC12C(=O)c1ccccc1C2=O` (stereo not drawn) [Compound 41, 3-(1H-benzimidazol-2-carbonyl)-4-cyclohexyl-5-(1H-indol-3-yl)spiro[inden-2,2′-pyrrolidine]-1,3-dione], the half-inhibitory concentration (IC50) in test [1] amounted to 77.4 µM; in test [2], 89.6 µM; in test [3], 82.3 µM.

Turning to `O=C(c1nc2ccccc2[nH]1)C1C(c2ccc(Cl)c(F)c2)C(c2c[nH]c3ccccc23)NC12C(=O)c1ccccc1C2=O` (stereo not drawn) [Compound 42, 3-(1H-benzimidazol-2-carbonyl)-4-(4-chloro-3-fluorophenyl)-5-(1H-indol-3-yl)spiro[inden-2,2′-pyrrolidine]-1,3-dione], the IC50 was 4.78 µM in test [1], 3.45 µM in test [2] and 3.01 µM in test [3].

As for `O=C(c1nc2ccccc2[nH]1)C1C(c2ccc(Cl)cc2)C(c2c[nH]c3ccccc23)NC12C(=O)c1ccccc1C2=O` (stereo not drawn) [Compound 43, 3-(1H-benzimidazol-2-carbonyl)-4-(4-chlorophenyl)-5-(1H-indol-3-yl)spiro[inden-2,2′-pyrrolidine]-1,3-dione], the IC50 was 55.5 µM in test [1], 34.6 µM in test [2] and 39.7 µM in test [3].
